Experiment [1] has as its target T1, Cereblon (CRBN) (Homo sapiens, UniProt Q96SW2). The experiment can be described thus: TR-FRET displacement of Cy5-thalidomide from CRBN-DDB1. Type of experiment: binding. On the set-up: 6xHis-CRBN-DDB1 complex; with DDB1. (In general: TR-FRET usually uses a lanthanide donor and a delayed reading to cut background.)
Target sequence in this assay (Q96SW2 40-442): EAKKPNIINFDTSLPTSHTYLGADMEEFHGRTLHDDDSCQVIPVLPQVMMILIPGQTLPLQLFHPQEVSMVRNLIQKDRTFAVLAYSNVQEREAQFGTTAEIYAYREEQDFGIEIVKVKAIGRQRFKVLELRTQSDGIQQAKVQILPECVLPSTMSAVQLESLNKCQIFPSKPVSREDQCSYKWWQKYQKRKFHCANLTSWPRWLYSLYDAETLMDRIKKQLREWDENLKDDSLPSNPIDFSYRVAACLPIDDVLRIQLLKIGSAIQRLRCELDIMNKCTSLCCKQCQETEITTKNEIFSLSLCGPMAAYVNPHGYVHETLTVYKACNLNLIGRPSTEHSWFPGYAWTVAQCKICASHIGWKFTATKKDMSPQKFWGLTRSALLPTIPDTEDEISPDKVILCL
Target sequence in this assay (Q16531 whole entry partner): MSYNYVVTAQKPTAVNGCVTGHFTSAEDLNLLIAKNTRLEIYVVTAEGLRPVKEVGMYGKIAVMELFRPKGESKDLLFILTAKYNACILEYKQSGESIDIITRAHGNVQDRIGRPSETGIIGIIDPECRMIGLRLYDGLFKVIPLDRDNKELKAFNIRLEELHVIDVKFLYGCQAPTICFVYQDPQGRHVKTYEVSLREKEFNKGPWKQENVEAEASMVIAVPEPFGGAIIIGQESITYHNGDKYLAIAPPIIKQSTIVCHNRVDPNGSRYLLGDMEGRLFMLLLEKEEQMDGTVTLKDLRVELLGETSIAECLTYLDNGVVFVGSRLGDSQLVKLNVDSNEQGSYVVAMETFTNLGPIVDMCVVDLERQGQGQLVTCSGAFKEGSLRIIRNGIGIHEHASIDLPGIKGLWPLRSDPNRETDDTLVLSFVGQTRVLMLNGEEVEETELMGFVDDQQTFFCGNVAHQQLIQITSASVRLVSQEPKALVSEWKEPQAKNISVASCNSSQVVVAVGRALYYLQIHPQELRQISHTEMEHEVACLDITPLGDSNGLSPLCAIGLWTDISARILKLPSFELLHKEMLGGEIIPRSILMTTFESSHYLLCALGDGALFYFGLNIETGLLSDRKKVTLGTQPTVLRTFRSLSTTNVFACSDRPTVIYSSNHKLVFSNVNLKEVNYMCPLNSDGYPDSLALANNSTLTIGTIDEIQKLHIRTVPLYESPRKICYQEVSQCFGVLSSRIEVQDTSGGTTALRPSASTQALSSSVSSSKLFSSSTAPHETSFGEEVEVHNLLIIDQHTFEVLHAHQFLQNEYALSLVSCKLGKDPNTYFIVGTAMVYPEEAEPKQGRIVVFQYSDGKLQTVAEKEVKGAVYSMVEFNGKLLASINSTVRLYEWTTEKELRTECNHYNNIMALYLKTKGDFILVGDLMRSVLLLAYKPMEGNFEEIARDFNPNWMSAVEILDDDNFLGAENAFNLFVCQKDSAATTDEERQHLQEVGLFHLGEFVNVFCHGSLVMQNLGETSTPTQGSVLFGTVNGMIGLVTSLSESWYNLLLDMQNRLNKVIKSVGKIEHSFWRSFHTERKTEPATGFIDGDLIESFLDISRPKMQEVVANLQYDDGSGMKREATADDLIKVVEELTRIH
In experiment [2] the target is T1, Cereblon (CRBN). The experiment in a line: cryo-EM structure ([…] Å and […] Å); TR-FRET thalidomide displacement (IC50); FIDA and SEC-MALS. In kind it is binding. On the set-up: 6xHis-CRBN-DDB1 complex (per checker note), TR-FRET thalidomide displacement; not the cryo-EM CRBN 41-442/DDB1ΔBPB homodimer.
Target sequence in this assay (Q96SW2 whole entry): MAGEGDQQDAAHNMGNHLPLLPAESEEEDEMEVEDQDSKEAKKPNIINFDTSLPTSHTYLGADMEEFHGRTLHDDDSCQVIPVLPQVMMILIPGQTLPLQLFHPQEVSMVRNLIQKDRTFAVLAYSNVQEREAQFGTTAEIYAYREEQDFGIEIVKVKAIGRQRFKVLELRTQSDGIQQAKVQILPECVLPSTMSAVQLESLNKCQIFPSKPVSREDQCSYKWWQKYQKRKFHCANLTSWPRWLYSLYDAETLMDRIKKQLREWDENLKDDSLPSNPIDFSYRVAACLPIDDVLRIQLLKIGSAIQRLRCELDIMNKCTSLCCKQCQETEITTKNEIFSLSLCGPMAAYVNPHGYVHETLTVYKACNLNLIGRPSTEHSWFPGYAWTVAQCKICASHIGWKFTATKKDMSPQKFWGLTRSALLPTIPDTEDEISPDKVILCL
Target sequence in this assay (Q16531 2-1140 partner): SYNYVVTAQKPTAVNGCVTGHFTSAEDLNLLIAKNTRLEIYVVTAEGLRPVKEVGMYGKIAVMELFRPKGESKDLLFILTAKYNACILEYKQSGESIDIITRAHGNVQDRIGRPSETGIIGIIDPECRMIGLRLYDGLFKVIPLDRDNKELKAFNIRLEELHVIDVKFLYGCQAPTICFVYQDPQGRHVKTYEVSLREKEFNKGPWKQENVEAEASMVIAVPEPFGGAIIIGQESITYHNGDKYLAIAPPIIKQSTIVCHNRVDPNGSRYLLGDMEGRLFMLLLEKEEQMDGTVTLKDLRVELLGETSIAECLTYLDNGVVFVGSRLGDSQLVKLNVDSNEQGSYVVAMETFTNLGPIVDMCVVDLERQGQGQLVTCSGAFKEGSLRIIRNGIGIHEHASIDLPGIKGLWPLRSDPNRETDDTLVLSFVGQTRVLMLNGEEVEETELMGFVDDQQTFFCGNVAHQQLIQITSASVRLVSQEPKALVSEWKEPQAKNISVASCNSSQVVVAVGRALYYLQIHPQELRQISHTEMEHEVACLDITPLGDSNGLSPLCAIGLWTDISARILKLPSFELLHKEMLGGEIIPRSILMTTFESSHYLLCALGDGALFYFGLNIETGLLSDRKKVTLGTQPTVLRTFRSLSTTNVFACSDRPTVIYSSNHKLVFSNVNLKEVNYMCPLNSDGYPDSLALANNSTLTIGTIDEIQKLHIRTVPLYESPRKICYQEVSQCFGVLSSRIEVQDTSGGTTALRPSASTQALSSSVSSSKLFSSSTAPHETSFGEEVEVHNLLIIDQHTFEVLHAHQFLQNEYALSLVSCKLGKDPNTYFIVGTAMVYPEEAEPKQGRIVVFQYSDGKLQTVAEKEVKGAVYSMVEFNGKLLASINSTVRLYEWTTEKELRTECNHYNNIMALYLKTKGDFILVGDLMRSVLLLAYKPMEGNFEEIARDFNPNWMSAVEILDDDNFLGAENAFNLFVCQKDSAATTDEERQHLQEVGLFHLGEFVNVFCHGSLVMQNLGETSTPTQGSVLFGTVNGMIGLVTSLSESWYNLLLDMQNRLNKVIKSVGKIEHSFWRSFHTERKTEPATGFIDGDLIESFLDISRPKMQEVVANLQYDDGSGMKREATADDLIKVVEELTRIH

SMILES strings stand for the structures.

Usually IC50 stands for the concentration at which inhibition is half-maximal. `O=C1CCC(N2Cc3ccc(N4CCC5(CCN(Cc6ccccc6)CC5)C4)cc3C2=O)C(=O)N1` (centres unmarked) [MRT-30568]: the IC50 in experiment [1] amounted to 60 nM. With `O=C1CCC(N2Cc3ccc(N4CCC5(CCN(C(=O)c6ccccc6)CC5)C4)cc3C2=O)C(=O)N1` (centres unmarked) [MRT-31619], in experiment [2], the IC50 amounted to 14 nM.

Values taken from PMC12630686, “A degron-mimicking molecular glue drives CRBN homo-dimerization and degradation” (Nature Communications, 2025).
